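Assay format: 96-well plates, 48-hour exposure. GI50: concentration for 50% inhibition of growth. TGI: total growth inhibition.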
Assays:
Test in all cases: NCI tumour cell line growth inhibition, 48 h
ACHN renal = system: ACHN renal
COLO 205 colon = system: COLO 205 colon
HOP-62 NSCLC = system: HOP-62 NSCLC
SK-MEL-2 melanoma = system: SK-MEL-2 melanoma
SK-MEL-28 melanoma = system: SK-MEL-28 melanoma
SK-MEL-5 melanoma = system: SK-MEL-5 melanoma
SK-OV-3 ovarian = system: SK-OV-3 ovarian
T-47D breast = system: T-47D breast
CCRF-CEM leukemia = system: CCRF-CEM leukemia
SNB-75 CNS = system: SNB-75 CNS

SMILES | TGI (ACHN renal) | TGI (COLO 205 colon) | TGI (HOP-62 NSCLC) | TGI (SK-MEL-2 melanoma) | TGI (SK-MEL-28 melanoma) | TGI (SK-MEL-5 melanoma) | TGI (SK-OV-3 ovarian) | TGI (T-47D breast) | TGI (CCRF-CEM leukemia) | TGI (SNB-75 CNS) | GI50 (COLO 205 colon) | GI50 (ACHN renal) | GI50 (CCRF-CEM leukemia) | GI50 (HOP-62 NSCLC) | GI50 (SK-MEL-2 melanoma) | GI50 (SK-MEL-28 melanoma) | GI50 (SK-OV-3 ovarian)
CCCCCCCCCCCCOCC(COP(=O)(O)OCCN=[N+]=[N-])OC(=O)CCCCCCCCCCC (centres undefined) | > 100 µM | > 100 µM | > 100 µM | > 100 µM | > 100 µM | > 100 µM | > 100 µM | > 100 µM |  |  |  |  |  |  |  |  | 
CCCCCCCCCCCC1=C(O)C(=O)C(CC2=C(O)C(=O)C(CCCCCCCCCCC)=C(O)C2=O)=C(O)C1=O | > 100 µM | > 100 µM |  | > 100 µM | > 100 µM | > 100 µM | > 100 µM | > 100 µM | 64.4 µM | 37.5 µM |  |  |  |  |  |  | 
NC1CCC2(O)c3ccccc3C2C1 (centres undefined) | > 100 µM | > 100 µM | > 100 µM | > 100 µM | > 100 µM | > 100 µM | > 100 µM |  | > 100 µM | > 100 µM |  |  |  |  |  |  | 
CC[C@]1(c2ccc3c(c2)OCO3)C=[N+]([O-])O[C@H](OC2CCCC2(c2ccccc2)c2ccccc2)[C@@H]1OC(C)=O (some centres undefined) | 9.75 µM | 5.07 µM | 5.38 µM | 5.73 µM |  | 3.54 µM | 14.4 µM | 10.2 µM | > 64.6 µM | 5.93 µM |  |  |  |  |  |  | 
CCOC(=O)CNC(=O)c1[nH]cnc1/N=N/N(C)C | > 100 µM | > 100 µM | > 100 µM | > 100 µM | > 100 µM | > 100 µM | > 100 µM |  | > 100 µM | > 100 µM |  |  |  |  |  |  | 
Cc1ccc(S(=O)(=O)OCCN(CCOS(=O)(=O)c2ccc(C)cc2)c2ccc(C=O)cc2)cc1 | > 100 µM | > 100 µM |  | 40.1 µM | 81.3 µM | > 100 µM |  | > 100 µM | > 100 µM |  |  |  |  |  |  |  | 
BrC1(c2ccccc2)C[n+]2c(-c3ccccc3)cc(-c3ccccc3)cc2-c2ccccc21 (centres undefined) | 14 µM | 0.318 µM | 7.41 µM | 1.08 µM | 21.2 µM | 0.366 µM |  |  | 21.2 µM | 0.621 µM |  |  |  |  |  |  | 
COc1cccc(/C=N/[N-]C(N)=O)c1[O-].[Cu+2].[OH3+] | 24.8 µM | > 100 µM | 44.3 µM | 31.3 µM | 27.8 µM |  |  |  |  | 25.1 µM | 9.49 µM |  |  |  |  |  | 
O=[N+]([O-])/C=C/c1cc(Cl)c(/C=C/[N+](=O)[O-])cc1Cl | 2.97 µM | 4.5 µM | 31.8 µM | 12.8 µM |  | 14.9 µM | > 56.6 µM | 6.38 µM | > 100 µM | 29.6 µM |  |  |  |  |  |  | 
COC1=C(OC)C(=O)C(Cc2c(Cl)nc3sccn23)=C(C)C1=O | 27.8 µM | 29.2 µM | 31.1 µM | 38.7 µM | 24.4 µM | 17.5 µM | 21.7 µM | 17.8 µM | 5.44 µM |  |  |  |  |  |  |  | 
CCOC(=O)C(Cc1ccc(N=NN(C)C)cc1)NC(=O)CC1c2ccccc2-c2ccccc21 (centres undefined) | > 100 µM | > 100 µM | > 100 µM | > 100 µM | > 100 µM | > 100 µM | > 100 µM |  | > 100 µM | > 100 µM |  |  |  |  |  |  | 
C/C(CCN(C)C)=N/O | 22.3 µM | 15.8 µM | 57 µM | 31.5 µM | 14.8 µM | 24.3 µM | 54.1 µM |  | 7.14 µM | 33 µM |  |  |  |  |  |  | 
[N-]=[N+]=CC(=O)C1CCN(c2ccccc2)C1=O (centres undefined) | > 10 µM | > 10 µM | > 10 µM | > 10 µM | > 10 µM | > 10 µM | > 10 µM | > 10 µM | > 10 µM |  |  |  |  |  |  |  | 
CC1CC(c2ccccc2)=Nc2ccccc2S1 (centres undefined) | > 100 µM | > 100 µM | > 100 µM | > 100 µM | > 100 µM | > 100 µM | > 100 µM |  | > 100 µM | > 100 µM |  |  |  |  |  |  | 
CC(C)=CC1C(C(=O)OCc2cc3c(cc2Cl)OCO3)C1(C)C (centres undefined) | > 100 µM |  | > 100 µM | 23.1 µM | > 100 µM | 34.2 µM |  | > 100 µM | > 100 µM | > 100 µM |  |  |  |  |  |  | 
COc1c(OC2OC(CO)C(O)C(O)C2O)cc2c(c1OC)-c1ccc(OC)c(=O)cc1C(NC(C)=O)CC2 (centres undefined) | > 100 µM | > 100 µM | > 100 µM | > 100 µM | > 100 µM | > 100 µM | > 100 µM |  | > 100 µM | > 84.4 µM |  |  |  |  |  |  | 
Cc1ccc(NC(=O)CC/C(CC(=O)C(C)(C)C)=N/NC(=O)c2cc3ccccc3cc2O)cc1C | > 100 µM | > 100 µM | > 100 µM | > 100 µM | > 100 µM |  | > 100 µM |  | 70.1 µM |  |  |  |  |  |  |  | 
O=C(O)C1CCC(=O)N1C(=O)COc1cc(Cl)c(Cl)cc1Cl (centres undefined) | > 100 µM | > 100 µM |  |  | > 100 µM | > 100 µM | > 100 µM |  |  | > 100 µM |  |  |  |  |  |  | 

SMILES | TGI (ACHN renal) | TGI (COLO 205 colon) | TGI (HOP-62 NSCLC) | TGI (SK-MEL-2 melanoma) | TGI (SK-MEL-28 melanoma) | TGI (SK-MEL-5 melanoma) | TGI (SK-OV-3 ovarian) | TGI (T-47D breast) | TGI (CCRF-CEM leukemia) | TGI (SNB-75 CNS) | GI50 (COLO 205 colon) | GI50 (ACHN renal) | GI50 (CCRF-CEM leukemia) | GI50 (HOP-62 NSCLC) | GI50 (SK-MEL-2 melanoma) | GI50 (SK-MEL-28 melanoma) | GI50 (SK-OV-3 ovarian)
CCc1c(O)nc(Nc2nc3ccccc3[nH]2)[nH]c1=O | > 100 µM | > 100 µM | > 100 µM | > 100 µM | > 100 µM | > 100 µM | > 100 µM |  | > 100 µM | > 100 µM |  |  |  |  |  |  | 
COCOC1CCCC[C@@]1(OCCOCCO[C@@]1(c2ccccc2)CCCC[C@H]1OCOC)c1ccccc1 (some centres undefined) | > 100 µM | > 100 µM | > 100 µM | > 100 µM | > 100 µM |  | > 100 µM |  | > 100 µM | 84.3 µM |  |  |  |  |  |  | 
COc1ccc(O[C@H](CO)C[C@@H]2COC(C)(C)O2)cc1 | > 100 µM | > 100 µM | > 100 µM | > 100 µM | > 100 µM | > 100 µM | > 100 µM |  | > 100 µM | > 100 µM |  |  |  |  |  |  | 
O=C(/C=C/c1ccccc1)c1cc(CN2CCOCC2)c(O)c(CN2CCOCC2)c1 | 8.26 µM | 23.6 µM | 39.3 µM | 61.8 µM | 29.4 µM | 26 µM |  | 48 µM | 16.7 µM | 38.9 µM |  |  |  |  |  |  | 
CC(=O)OC12c3ccccc3C(c3ccccc31)C1C(=O)N(N=C(C)C)C(=O)C12 (centres undefined) |  | > 100 µM | > 100 µM |  | > 100 µM | > 100 µM | > 100 µM | > 100 µM | > 100 µM | > 100 µM |  |  |  |  |  |  | 
O=c1[nH]nc(Nc2ccc(Cl)cc2)c2nnn(C3CCCCC3)c12 | > 100 µM | > 100 µM | > 100 µM | > 100 µM | > 100 µM | > 100 µM |  | > 100 µM | > 100 µM | > 100 µM |  |  |  |  |  |  | 
COc1cc2c(cc1O)C(Cc1ccc(OCc3ccccc3)c(OCc3ccccc3)c1)N(C(=O)NCCc1ccccc1)CC2 (centres undefined) | > 100 µM | > 100 µM | > 100 µM | > 100 µM |  | > 100 µM | > 100 µM | > 100 µM | > 100 µM | > 100 µM |  |  |  |  |  |  | 
C=CCOC(C)(C)C1=CCC(C)CC1 (centres undefined) | > 100 µM | > 100 µM | > 100 µM |  | > 100 µM | > 100 µM | > 100 µM |  |  | > 100 µM |  |  |  |  |  |  | 
COc1cc(C2c3cc4c(cc3[C@@H](Nc3ccc(F)cc3)C3COC[C@H]23)OCO4)cc(OC)c1O (some centres undefined) | 6.21 µM | > 25 µM | > 25 µM |  | > 25 µM | > 25 µM | > 25 µM | > 25 µM | 8.45 µM | 17 µM |  |  |  |  |  |  | 
CN1C(c2ccccc2)CC(O)CC1c1ccccc1 (centres undefined) | > 100 µM | > 100 µM | > 100 µM | > 100 µM | > 100 µM | > 100 µM | > 100 µM |  | > 100 µM | > 100 µM |  |  |  |  |  |  | 
COc1ccc(/C(C=O)=C(\Cl)c2ccc(OC)c(OC)c2)cc1 | > 100 µM |  | > 100 µM | > 100 µM |  | > 100 µM | > 100 µM |  | > 100 µM | 60.7 µM |  |  |  |  |  |  | 
Cc1cccc2c1nc1n2C(=O)c2ccccc2-1 | > 100 µM | > 100 µM |  | > 100 µM | > 100 µM | > 100 µM | > 100 µM |  | > 100 µM | > 100 µM |  |  |  |  |  |  | 
COC(=O)c1c(O)ccc2c1c1c(n2Cc2ccc(OC)cc2)C(=O)c2ccccc2C1 |  | 34.4 µM | > 100 µM | > 100 µM | > 100 µM | > 100 µM | > 100 µM |  | 89.4 µM | > 100 µM |  |  |  |  |  |  | 
CC(C)(NO)/C(=N\O)c1ccccc1 | > 10 µM | > 10 µM | > 10 µM | > 10 µM |  |  |  | > 10 µM | > 10 µM |  |  |  |  |  |  |  | 
NC(=O)CSc1nc2ccccc2c(=O)n1N | > 100 µM | > 100 µM |  | > 100 µM | > 100 µM | > 100 µM |  | > 100 µM |  | > 100 µM |  |  |  |  |  |  | 
O=C1c2ccccc2-c2c1c1ccccc1c(=O)n2CCCNCCNCCCn1c2c(c3ccccc3c1=O)C(=O)c1ccccc1-2 | 1.31 µM |  | 0.582 µM |  | > 100 µM |  |  |  | 0.498 µM |  |  | < 10 nM | 14.2 nM | < 17.2 nM | 2020 nM | 1090 nM | 1330 nM
O=S(Nc1ccccc1)c1ccc(Cl)cc1 (centres undefined) | > 100 µM | > 100 µM | > 100 µM | > 100 µM | > 100 µM | > 100 µM |  | > 100 µM | > 100 µM |  |  |  |  |  |  |  | 
CC1(C)N=C(/C(Cl)=[N+](/[O-])C(=O)c2ccc(Cl)cc2)C(C)(C)N1O | > 100 µM | 34.2 µM | > 100 µM | > 100 µM | 37.3 µM | 43.2 µM | > 100 µM | 95.1 µM | 45.7 µM |  |  |  |  |  |  |  | 
